Counter-ions that a name gives are not always drawn. Like-named read-outs stand apart in the source and are kept apart here.

Format in all cases: physicochemical
The nature of series [1]: Variable temperature study of Form B (cycling DSC, VT-XRPD). How it is done:
XRPD patterns were collected with a PANalytical X'Pert PRO MPD diffractometer using an incident beam of Cu Kα radiation produced using a long, fine-focus source and a nickel filter. The diffractometer was configured using the symmetric Bragg-Brentano geometry. Data were collected and analyzed using Data Collector software v. 5.5. Prior to the analysis, a silicon specimen (NIST SRM 640e) was analyzed to verify the observed position of the Si 111 peak is consistent with the NIST-certified position. A specimen of the sample was packed in a nickel-coated copper well. Anti-scatter slits (SS) were used to minimize the background generated by air scattering. Soller slits for the incident and diffracted beams were used to minimize broadening from axial divergence. Diffraction patterns were collected using a scanning position-sensitive detector (X'Celerator) located 240 mm from the sample. The data acquisition parameters for each pattern are disclosed, including the divergence slit (DS) and the incident-beam SS.
An Anton Paar TTK 450 stage was used to collect in-situ XRPD patterns as a function of temperature. The sample was heated with a resistance heater located directly under the sample holder, and the temperature was monitored with a platinum-100 resistance sensor located in the specimen holder. The heater was powered and controlled by an Anton Paar TCU 100 interfaced with Data Collector.
DSC was performed using a Mettler-Toledo DSC3+ differential scanning calorimeter. A tau lag adjustment was performed with indium, tin, and zinc. The temperature and enthalpy were adjusted with octane, phenyl salicylate, indium, tin, and zinc. The adjustment was then verified with octane, phenyl salicylate, indium, tin, and zinc. The sample was placed into a hermetically sealed aluminum DSC pan, and the weight was accurately recorded. The pan was then inserted into the DSC cell. A weighed aluminum pan configured as the sample pan was placed on the reference side of the cell. The pan lid was pierced prior to sample analysis. Samples were analyzed from −30° C. to 250° C. @ 10°/min. The cyclic DSC method heated from −30° C. to 100° C., returned to −30° C., then heated to 250° C. at 10°/min.
The thermal events associated with heating Form B, prepared according to Example 30, were further investigated by cycling DSC and variable temperature XRPD (FIG. 33 and FIG. 34, respectively). […] This phase transition was confirmed by VT-XRPD (see the diffraction pattern obtained at 100° C. in FIG. 34). During the first DSC cooling cycle, an exotherm at approximately 35° C. was observed. […] During the final DSC heating cycle, Form B first undergoes a phase transition to Material F at approximately 67° C. (endotherm). […] (endotherm) and immediately recrystallize as Form A (exotherm onset at approximately 164° C.). […] Determining which solid form was obtained after recrystallization was confirmed by VT-XRPD (the pattern obtained at approximately 175° C., FIG. 34).
It is believed that this solid state behavior can be explained due to the relative stability of Form B and Material F is reversed in passing the transition temperature. For enantiotropic systems where hysteresis is minimal within the timescale measured, the transition temperature must lie between the onset temperatures of the observed endotherm and exotherm. Therefore, a transition temperature of ~49° C. was estimated from the thermogram with the use of the lever rule.
The XRPD acquisition parameters used to collect the VT-XRPD data presented in Table 33 are as follows: X-ray Tube: Cu (1.54059 Å); voltage: 45 kV; amperage: 40 mA; scan range: 3.50-29.99° 2θ; step size: 0.017° 2θ; scan speed: 1.7° per minute; slit: DS: fixed slit ¼°; SS: fixed slit: ½°; revolution time: 0.0 null; and mode: reflection. The XRPD data collection times for the experiment are specified in Table 33.

Series [2] in a line: Slurry study of Form A of the mono-fumarate salt (XRPD of solids). As for the experimental part: XRPD patterns of samples were collected using with an X-ray diffractometer (Bruker D8 advance). The system was equipped with LynxEye detector. Samples were scanned from 3 to 40° 2θ, at a step size 0.02° 2θ. The tube voltage and current were 40 KV and 40 mA, respectively.
Slurry studies were conducted using 12 solvents at RT or 50° C. Solid samples were collected by filtration and analyzed by XRPD at a specific time.

Series [3] in a line: Solubility of mono-fumarate Form A estimated by solvent addition, visual assessment. From the text: The solubility of Form A of the mono-fumarate salt of the compound of formula (I) was estimated using solvent addition method via visual assessment of the samples.
Series [4] is described as follows: Physical stability of Form C at ambient conditions (XRPD). How it is done: The initial samples were then analyzed by XRPD. Thereafter, the vials were sealed and the samples were allowed to sit at ambient conditions for 9, 13, or 25 days (as designated in Table 35). The samples were then reanalyzed by XRPD.

Consider `Cc1cc(NC(=O)[C@H](O)c2cc(F)cc(F)c2)ccc1-c1cnc(N)c(C(=O)NC(C)C)c1` [Form B, (R)-2-amino-5-(4-(2-(3,5-difluorophenyl)-2-hydroxyacetamido)-2-methylphenyl)-N-isopropylnicotinamide], for which the “Result (VT-XRPD)” value was “Form B” in series [1] (30° C., 1st scan in table order); “Material F” in series [1] (30° C., 4th scan in table order); “Form A” in series [1] (30° C., 8th scan in table order); “Form B” in series [1] (75° C., 2nd scan in table order); “Material F” in series [1] (75° C., 5th scan in table order); “Material F” in series [1] (100° C., 3rd scan in table order). The “Result (VT-XRPD)” value is “Material F” in series [1] (100° C., 6th scan in table order) and “Form A^1” in series [1] (175° C., 7th scan in table order). Moreover, the “Relative stability of Form B vs Material F (enantiotropes)” value in series [1] (below the transition temperature) is “more stable, relative to Material F, below the transition temperature”.

On to `Cc1cc(NC(=O)[C@H](O)c2cc(F)cc(F)c2)ccc1-c1cnc(N)c(C(=O)NC(C)C)c1` [Form A of the mono-fumarate salt, (R)-2-amino-5-(4-(2-(3,5-difluorophenyl)-2-hydroxyacetamido)-2-methylphenyl)-N-isopropylnicotinamide], for which the “XRPD result after slurry” value in series [2] (2-Butanone, 50° C., 2 days) is given as “Mono-fumarate Form A”; in series [2] (2-Butanone, room temperature, 5 days), “Mono-fumarate Form A”; in series [2] (Acetone, 50° C., 2 days), “Mono-fumarate Form A”; in series [2] (Acetone, room temperature, 5 days) it was “Mono-fumarate Form A”; in series [2] (EtOAc, 50° C., 2 days) it was “Low crystallinity”; in series [2] (EtOAc, room temperature, 5 days) it was “Low crystallinity”. The “XRPD result after slurry” value was “Solid” in series [2] (EtOH, room temperature, 5 days); “Mono-fumarate Form A” in series [2] (Heptane, 50° C., 2 days); “Mono-fumarate Form A” in series [2] (Heptane, room temperature, 5 days); “Hemi-fumarate Form A” in series [2] (IPA, 50° C., 2 days); “Hemi-fumarate Form A” in series [2] (IPA, room temperature, 5 days); “Hemi-fumarate Form A” in series [2] (IPAc, 50° C., 2 days). Moreover, the “XRPD result after slurry” value in series [2] (IPAc, room temperature, 5 days) is reported as “Low crystallinity”; in series [2] (Isobutanol, 50° C., 2 days) it was “Hemi-fumarate Form A”; in series [2] (Isobutanol, room temperature, 5 days) it was “Hemi-fumarate Form A”; in series [2] (MTBE, 50° C., 2 days), “Hemi-fumarate Form A”; in series [2] (MTBE, room temperature, 5 days), “Low crystallinity”; in series [2] (MeCN, room temperature, 5 days) it was “Low crystallinity”. Besides, the “XRPD result after slurry” value in series [2] (Toluene, 50° C., 2 days) is reported as “Hemi-fumarate Form A”; in series [2] (Toluene, room temperature, 5 days) it was “Low crystallinity”; in series [2] (Water, 50° C., 2 days) it was “Alternative pattern”; in series [2] (Water, room temperature, 5 days), “Alternative pattern”. Further, the solubility in series [3] (EtOAc, organic solvent or mixture, thermodynamic from solid, EtOAc, read-out: Solubility) is more than 3 mg/mL; in series [3] (EtOH, organic solvent or mixture, thermodynamic from solid, EtOH, read-out: Solubility), more than 22.5 mg/mL; in series [3] (IPA, organic solvent or mixture, thermodynamic from solid, IPA, read-out: Solubility), more than 23.4 mg/mL; in series [3] (IPAc, organic solvent or mixture, thermodynamic from solid, IPAc, read-out: Solubility), more than 2.1 mg/mL; in series [3] (MEK, organic solvent or mixture, thermodynamic from solid, MEK, read-out: Solubility), more than 11.7 mg/mL; in series [3] (MTBE, organic solvent or mixture, thermodynamic from solid, MTBE, read-out: Solubility) it was more than 4.2 mg/mL. For the same compound, the solubility in series [3] (MeCN, organic solvent or mixture, thermodynamic from solid, MeCN, read-out: Solubility) was more than 2.2 mg/mL; in series [3] (MeOH), more than 53.2 mg/mL; in series [3] (MeOH, organic solvent or mixture, thermodynamic from solid, MeOH, read-out: Solubility), more than 50 mg/mL; in series [3] (THF), more than 52.6 mg/mL; in series [3] (THF, organic solvent or mixture, thermodynamic from solid, THF, read-out: Solubility), more than 50 mg/mL; in series [3] (acetone, organic solvent or mixture, thermodynamic from solid, Acetone, read-out: Solubility), more than 13.4 mg/mL. Also, the solubility in series [3] (heptane, organic solvent or mixture, thermodynamic from solid, Heptane, read-out: Solubility) is less than 1 mg/mL; in series [3] (isobutanol, organic solvent or mixture, thermodynamic from solid, Isobutanol, read-out: Solubility), more than 11.1 mg/mL; in series [3] (toluene, organic solvent or mixture, thermodynamic from solid, Toluene, read-out: Solubility), less than 1.1 mg/mL; in series [3] (water, thermodynamic from solid, Water, read-out: Solubility), less than 1.1 mg/mL.

In the case of `Cc1cc(NC(=O)[C@H](O)c2cc(F)cc(F)c2)ccc1-c1cnc(N)c(C(=O)NC(C)C)c1` [Form C, (R)-2-amino-5-(4-(2-(3,5-difluorophenyl)-2-hydroxyacetamido)-2-methylphenyl)-N-isopropylnicotinamide], the “Result (XRPD)” value in series [4] (Acetone, ambient conditions, stored for 13 days) is “Form B (FIG. 38B)”; in series [4] (Acetone, initial sample) it was “Form B + Form C”; in series [4] (MeCN, ambient conditions, stored for 25 days), “Form B (FIG. 38D)”; in series [4] (MeCN, initial sample), “Form C (FIG. 38C)”; in series [4] (MeCN/water, ambient conditions, stored for 9 days), “Form C + Form B”; in series [4] (MeCN/water, initial sample), “Form C (FIG. 38E)”. Further, the “Physical stability of Form C (XRPD)” value in series [4] (ambient conditions, irrespective of solvent system used to prepare Form C) was “desolvates and either partially converts or fully converts to Form B within days”. For the same compound, the “Solid form (XRPD) after storage” value is “mixture of Form B and Form C” in series [4] (sample obtained from acetonitrile and water, ambient conditions, 9 days); “Form B” in series [4] (sample obtained from acetonitrile, ambient conditions, 25 days).

Broadly, the solubility is the dissolved amount per volume that the medium holds.
